Data from ChEMBL document CHEMBL4507260 (2021).

Columns and labels:
Details in all cases: Compound concentration 1000.0 nM
[1] = biological target: Homeodomain-interacting protein kinase 1 (Homo sapiens) (UniProt Q86Z02)
[2] = biological target: Fibroblast growth factor receptor 4 (Homo sapiens) (UniProt P22455)
[3] = biological target: Mitogen-activated protein kinase 15 (Homo sapiens) (UniProt Q8TD08)
[4] = biological target: Homeodomain-interacting protein kinase 4 (Homo sapiens) (UniProt Q8NE63)
[5] = biological target: Casein kinase II subunit alpha (Homo sapiens) (UniProt P68400)
[6] = biological target: Serine/threonine-protein kinase DCLK3 (Homo sapiens) (UniProt Q9C098)
[7] = biological target: Serine/threonine-protein kinase D3 (Homo sapiens) (UniProt O94806)
[8] = biological target: Serine/threonine-protein kinase/endoribonuclease IRE1 (Homo sapiens) (UniProt O75460)
[9] = biological target: Serine/threonine-protein kinase BRSK1 (Homo sapiens) (UniProt Q8TDC3)
[10] = biological target: Rho-associated protein kinase 2 (Homo sapiens) (UniProt O75116)
[11] = biological target: Cyclin-dependent kinase 16 (Homo sapiens) (UniProt Q00536)
[12] = system: Phosphatidylinositol 4,5-bisphosphate 3-kinase catalytic subunit alpha isoform (Homo sapiens), P42336 [H1047Y]
[13] = biological target: MAP kinase-activated protein kinase 2 (Homo sapiens) (UniProt P49137)
[14] = biological target: Aurora kinase C (Homo sapiens) (UniProt Q9UQB9)
[15] = biological target: Serine/threonine-protein kinase STK11 (Homo sapiens) (UniProt Q15831)
[16] = biological target: Death-associated protein kinase 2 (Homo sapiens) (UniProt Q9UIK4)
[17] = biological target: Mitogen-activated protein kinase kinase kinase 5 (Homo sapiens) (UniProt Q99683)
Mitogen-activated protein kinase kinase kinase 5 (Homo sapiens), sequence (Q99683 whole entry): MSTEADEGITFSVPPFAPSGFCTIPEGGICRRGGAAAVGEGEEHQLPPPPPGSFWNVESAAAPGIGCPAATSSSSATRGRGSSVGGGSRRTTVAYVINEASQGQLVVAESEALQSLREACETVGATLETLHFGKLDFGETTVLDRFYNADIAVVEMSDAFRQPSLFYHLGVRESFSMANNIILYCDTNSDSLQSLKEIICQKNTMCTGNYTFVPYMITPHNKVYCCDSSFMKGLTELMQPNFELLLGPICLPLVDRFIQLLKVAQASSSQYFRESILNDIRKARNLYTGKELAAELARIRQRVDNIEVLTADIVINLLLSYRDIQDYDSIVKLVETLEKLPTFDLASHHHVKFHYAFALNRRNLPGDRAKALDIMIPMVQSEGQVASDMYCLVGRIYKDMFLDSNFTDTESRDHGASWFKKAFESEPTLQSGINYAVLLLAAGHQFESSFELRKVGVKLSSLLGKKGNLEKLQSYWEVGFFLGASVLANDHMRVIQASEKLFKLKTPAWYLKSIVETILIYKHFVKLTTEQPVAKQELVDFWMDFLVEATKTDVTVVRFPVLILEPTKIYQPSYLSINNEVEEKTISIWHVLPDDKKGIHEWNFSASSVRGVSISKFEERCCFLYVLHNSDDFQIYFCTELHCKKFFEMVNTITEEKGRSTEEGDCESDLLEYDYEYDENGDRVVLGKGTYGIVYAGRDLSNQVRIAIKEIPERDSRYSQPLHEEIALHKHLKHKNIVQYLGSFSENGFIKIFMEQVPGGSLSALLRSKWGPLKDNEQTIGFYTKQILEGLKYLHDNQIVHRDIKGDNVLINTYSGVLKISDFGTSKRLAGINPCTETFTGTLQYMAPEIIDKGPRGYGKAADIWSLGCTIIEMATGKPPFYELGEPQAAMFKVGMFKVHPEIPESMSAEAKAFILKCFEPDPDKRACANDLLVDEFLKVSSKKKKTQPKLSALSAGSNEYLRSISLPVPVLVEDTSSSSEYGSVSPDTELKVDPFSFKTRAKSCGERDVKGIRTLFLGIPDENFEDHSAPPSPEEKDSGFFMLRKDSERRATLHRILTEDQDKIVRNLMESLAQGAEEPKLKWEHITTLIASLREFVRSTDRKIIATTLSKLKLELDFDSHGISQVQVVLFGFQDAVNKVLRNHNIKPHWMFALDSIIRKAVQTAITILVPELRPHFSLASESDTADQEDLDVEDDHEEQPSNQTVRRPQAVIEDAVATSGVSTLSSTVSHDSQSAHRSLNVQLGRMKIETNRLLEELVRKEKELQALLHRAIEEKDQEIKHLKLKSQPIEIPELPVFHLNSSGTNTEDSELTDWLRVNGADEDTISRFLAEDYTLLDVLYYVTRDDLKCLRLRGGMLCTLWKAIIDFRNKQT

[18] = biological target: Cyclin-dependent kinase 2 homolog (Plasmodium falciparum (isolate 3D7)) (UniProt P61075)
Cyclin-dependent kinase 2 homolog (Plasmodium falciparum (isolate 3D7)), sequence (P61075 whole entry): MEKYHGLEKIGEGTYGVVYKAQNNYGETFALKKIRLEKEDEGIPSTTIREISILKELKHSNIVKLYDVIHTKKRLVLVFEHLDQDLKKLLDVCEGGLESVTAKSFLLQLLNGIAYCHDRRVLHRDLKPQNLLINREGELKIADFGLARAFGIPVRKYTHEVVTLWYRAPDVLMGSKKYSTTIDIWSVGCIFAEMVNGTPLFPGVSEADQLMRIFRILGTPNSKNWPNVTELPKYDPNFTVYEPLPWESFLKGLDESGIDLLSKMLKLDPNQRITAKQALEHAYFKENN

[19] = biological target: Protein kinase C eta type (Homo sapiens) (UniProt P24723)
[20] = biological target: Tyrosine-protein kinase receptor Tie-1 (Homo sapiens) (UniProt P35590)
[21] = biological target: Ephrin type-A receptor 7 (Homo sapiens) (UniProt Q15375)
Ephrin type-A receptor 7 (Homo sapiens), sequence (Q15375 28-998 limits assumed): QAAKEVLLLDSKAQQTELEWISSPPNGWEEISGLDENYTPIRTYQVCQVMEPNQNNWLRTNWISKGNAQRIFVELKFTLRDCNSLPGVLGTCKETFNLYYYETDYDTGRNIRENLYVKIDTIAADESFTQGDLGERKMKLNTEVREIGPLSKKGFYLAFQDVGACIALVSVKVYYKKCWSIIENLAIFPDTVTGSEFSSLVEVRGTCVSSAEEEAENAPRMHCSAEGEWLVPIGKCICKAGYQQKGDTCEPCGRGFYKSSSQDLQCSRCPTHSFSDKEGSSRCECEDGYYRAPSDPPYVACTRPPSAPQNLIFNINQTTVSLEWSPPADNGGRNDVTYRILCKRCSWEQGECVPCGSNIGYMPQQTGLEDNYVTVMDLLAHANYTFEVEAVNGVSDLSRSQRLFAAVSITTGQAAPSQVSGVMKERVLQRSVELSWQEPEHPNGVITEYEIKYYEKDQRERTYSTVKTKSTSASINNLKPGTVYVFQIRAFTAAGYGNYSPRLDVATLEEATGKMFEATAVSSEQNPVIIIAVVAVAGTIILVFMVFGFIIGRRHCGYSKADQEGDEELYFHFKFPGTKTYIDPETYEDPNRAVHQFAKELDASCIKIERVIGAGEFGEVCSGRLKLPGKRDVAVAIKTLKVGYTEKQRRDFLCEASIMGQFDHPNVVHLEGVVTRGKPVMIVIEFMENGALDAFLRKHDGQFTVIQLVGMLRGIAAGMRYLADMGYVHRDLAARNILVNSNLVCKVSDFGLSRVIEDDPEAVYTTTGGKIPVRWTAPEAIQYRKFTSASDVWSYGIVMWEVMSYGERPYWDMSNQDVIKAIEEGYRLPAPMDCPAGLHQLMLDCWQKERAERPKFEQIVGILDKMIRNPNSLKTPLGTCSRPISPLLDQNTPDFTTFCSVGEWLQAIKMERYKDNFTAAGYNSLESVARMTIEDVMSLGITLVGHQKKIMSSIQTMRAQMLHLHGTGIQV

[22] = biological target: Mitogen-activated protein kinase kinase kinase 3 (Homo sapiens) (UniProt Q99759)
[23] = biological target: Myosin light chain kinase family member 4 (Homo sapiens) (UniProt Q86YV6)
Myosin light chain kinase family member 4 (Homo sapiens), sequence (Q86YV6 whole entry): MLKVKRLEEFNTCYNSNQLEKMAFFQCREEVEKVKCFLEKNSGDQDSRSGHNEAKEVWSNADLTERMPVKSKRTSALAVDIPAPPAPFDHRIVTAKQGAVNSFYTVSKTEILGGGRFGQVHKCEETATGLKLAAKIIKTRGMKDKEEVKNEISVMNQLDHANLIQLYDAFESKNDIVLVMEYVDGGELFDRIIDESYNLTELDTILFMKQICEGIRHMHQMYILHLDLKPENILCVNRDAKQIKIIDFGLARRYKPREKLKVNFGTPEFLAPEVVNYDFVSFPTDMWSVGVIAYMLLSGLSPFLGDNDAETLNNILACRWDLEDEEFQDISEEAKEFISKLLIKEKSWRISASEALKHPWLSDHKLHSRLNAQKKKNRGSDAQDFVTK

[24] = biological target: Ephrin type-A receptor 1 (Homo sapiens) (UniProt P21709)
[25] = biological target: Dual specificity mitogen-activated protein kinase kinase 2 (Homo sapiens) (UniProt P36507)
[26] = biological target: Cyclin-dependent kinase 4 (Homo sapiens) (UniProt P11802)
[27] = biological target: Tyrosine-protein kinase FRK (Homo sapiens) (UniProt P42685)
Tyrosine-protein kinase FRK (Homo sapiens), sequence (P42685 whole entry, canonical isoform): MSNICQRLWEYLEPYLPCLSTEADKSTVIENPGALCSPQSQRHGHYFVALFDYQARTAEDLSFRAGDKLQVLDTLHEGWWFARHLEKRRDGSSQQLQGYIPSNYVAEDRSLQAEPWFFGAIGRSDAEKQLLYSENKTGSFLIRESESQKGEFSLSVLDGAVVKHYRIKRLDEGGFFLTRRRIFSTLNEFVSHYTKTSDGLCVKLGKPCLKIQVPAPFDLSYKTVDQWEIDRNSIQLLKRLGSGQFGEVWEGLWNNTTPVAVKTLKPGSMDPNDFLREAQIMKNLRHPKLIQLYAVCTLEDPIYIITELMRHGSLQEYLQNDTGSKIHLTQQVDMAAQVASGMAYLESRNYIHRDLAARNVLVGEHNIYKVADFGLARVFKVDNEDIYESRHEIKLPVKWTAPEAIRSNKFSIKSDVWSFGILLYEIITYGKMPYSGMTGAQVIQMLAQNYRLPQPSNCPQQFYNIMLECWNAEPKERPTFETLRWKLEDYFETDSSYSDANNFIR

[28] = system: Phosphatidylinositol 4,5-bisphosphate 3-kinase catalytic subunit alpha isoform (Homo sapiens), P42336 [I800L]
[29] = biological target: Serine/threonine-protein kinase MARK1 (Homo sapiens) (UniProt Q9P0L2)
[30] = biological target: Serine/threonine-protein kinase pim-3 (Homo sapiens) (UniProt Q86V86)
[31] = biological target: Serine/threonine-protein kinase SIK2 (Homo sapiens) (UniProt Q9H0K1)
[32] = biological target: Mitogen-activated protein kinase 4 (Homo sapiens) (UniProt P31152)
[33] = biological target: cGMP-dependent protein kinase 2 (Homo sapiens) (UniProt Q13237)
[34] = biological target: Cyclin-dependent kinase 11A (Homo sapiens) (UniProt Q9UQ88)
[35] = system: Mast/stem cell growth factor receptor Kit (Homo sapiens), P10721 [V559D,V654A]
Mast/stem cell growth factor receptor Kit (Homo sapiens), P10721 [V559D,V654A], sequence (P10721 whole entry V559D/V654A): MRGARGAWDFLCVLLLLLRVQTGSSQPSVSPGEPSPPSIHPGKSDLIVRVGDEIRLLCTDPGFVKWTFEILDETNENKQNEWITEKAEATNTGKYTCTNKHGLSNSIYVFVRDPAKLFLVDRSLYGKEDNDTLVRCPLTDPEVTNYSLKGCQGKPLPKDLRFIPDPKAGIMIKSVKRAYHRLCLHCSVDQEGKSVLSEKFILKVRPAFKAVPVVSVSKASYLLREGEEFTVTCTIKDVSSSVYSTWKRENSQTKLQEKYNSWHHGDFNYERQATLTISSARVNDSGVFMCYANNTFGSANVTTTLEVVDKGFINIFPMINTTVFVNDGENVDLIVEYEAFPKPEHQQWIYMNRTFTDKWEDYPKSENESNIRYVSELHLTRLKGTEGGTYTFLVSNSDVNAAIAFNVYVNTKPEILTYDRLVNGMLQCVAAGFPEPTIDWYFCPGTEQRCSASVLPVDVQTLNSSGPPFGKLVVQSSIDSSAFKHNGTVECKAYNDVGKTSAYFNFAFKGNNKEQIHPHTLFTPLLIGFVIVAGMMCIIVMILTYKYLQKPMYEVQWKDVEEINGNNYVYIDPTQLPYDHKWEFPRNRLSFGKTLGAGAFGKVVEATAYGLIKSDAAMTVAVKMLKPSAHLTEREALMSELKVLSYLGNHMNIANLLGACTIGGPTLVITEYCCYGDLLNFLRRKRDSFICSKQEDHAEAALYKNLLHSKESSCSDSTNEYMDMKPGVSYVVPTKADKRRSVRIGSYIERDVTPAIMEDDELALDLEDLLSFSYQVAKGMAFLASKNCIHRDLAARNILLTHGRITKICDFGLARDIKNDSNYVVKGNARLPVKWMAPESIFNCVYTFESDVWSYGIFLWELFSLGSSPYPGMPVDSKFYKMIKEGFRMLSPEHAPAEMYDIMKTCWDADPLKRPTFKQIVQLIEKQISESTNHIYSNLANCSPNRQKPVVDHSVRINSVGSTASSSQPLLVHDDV

[36] = biological target: Serine/threonine-protein kinase Sgk1 (Homo sapiens) (UniProt O00141)
[37] = biological target: Cyclin-dependent kinase 8 (Homo sapiens) (UniProt P49336)
[38] = biological target: Cyclin-dependent kinase 14 (Homo sapiens) (UniProt O94921)
[39] = biological target: Ribosomal protein S6 kinase alpha-2 (Homo sapiens) (UniProt Q15349)
[40] = biological target: Tyrosine-protein kinase Srms (Homo sapiens) (UniProt Q9H3Y6)
[41] = biological target: Phosphatidylinositol 5-phosphate 4-kinase type-2 gamma (Homo sapiens) (UniProt Q8TBX8)
[42] = biological target: Aurora kinase A (Homo sapiens) (UniProt O14965)
[43] = biological target: G protein-coupled receptor kinase 3 (Homo sapiens) (UniProt P35626)
[44] = system: Mast/stem cell growth factor receptor Kit (Homo sapiens), P10721 [A829P]
Mast/stem cell growth factor receptor Kit (Homo sapiens), P10721 [A829P], sequence (P10721 whole entry A829P): as the sequence (P10721 whole entry V559D/V654A) above, with D559V, A654V, A829P counted along it

[45] = biological target: Serine/threonine-protein kinase TAO1 (Homo sapiens) (UniProt Q7L7X3)

CSc1cccnc1N1CCN(Cc2nc3ccccc3[nH]2)CC1 [A-769]
residual activity [1]: 78% | residual activity [2]: 89% | residual activity [3]: 82% | residual activity [4]: 100% | residual activity [5]: 81% | residual activity [6]: 100% | residual activity [7]: 100% | residual activity [8]: 70% | residual activity [9]: 100% | residual activity [10]: 74% | residual activity [11]: 81% | residual activity [12]: 100% | residual activity [13]: 80% | residual activity [14]: 100% | residual activity [15]: 100% | residual activity [16]: 100% | residual activity [17]: 98% | residual activity [18]: 92% | residual activity [19]: 100% | residual activity [20]: 100% | residual activity [21]: 93% | residual activity [22]: 83% | residual activity [23]: 100% | residual activity [24]: 100% | residual activity [25]: 70% | residual activity [26]: 82% | residual activity [27]: 92% | residual activity [28]: 77% | residual activity [29]: 100% | residual activity [30]: 94% | residual activity [31]: 100% | residual activity [32]: 100% | residual activity [33]: 94% | residual activity [34]: 100% | residual activity [35]: 100% | residual activity [36]: 82% | residual activity [37]: 87% | residual activity [38]: 100% | residual activity [39]: 100% | residual activity [40]: 100% | residual activity [41]: 81% | residual activity [42]: 74% | residual activity [43]: 31% | residual activity [44]: 100% | residual activity [45]: 100%

c1ccc(N2CCN(Cc3nc4ccccc4[nH]3)CC2)nc1 [ABT-724]
residual activity [1]: 99% | residual activity [2]: 93% | residual activity [3]: 100% | residual activity [4]: 91% | residual activity [5]: 97% | residual activity [6]: 93% | residual activity [7]: 100% | residual activity [8]: 100% | residual activity [9]: 91% | residual activity [10]: 100% | residual activity [11]: 100% | residual activity [12]: 79% | residual activity [13]: 100% | residual activity [14]: 100% | residual activity [15]: 70% | residual activity [16]: 86% | residual activity [17]: 93% | residual activity [18]: 100% | residual activity [19]: 89% | residual activity [20]: 96% | residual activity [21]: 100% | residual activity [22]: 100% | residual activity [23]: 97% | residual activity [24]: 100% | residual activity [25]: 100% | residual activity [26]: 100% | residual activity [27]: 100% | residual activity [28]: 78% | residual activity [29]: 100% | residual activity [30]: 100% | residual activity [31]: 100% | residual activity [32]: 100% | residual activity [33]: 100% | residual activity [34]: 100% | residual activity [35]: 100% | residual activity [36]: 100% | residual activity [37]: 100% | residual activity [38]: 100% | residual activity [39]: 99% | residual activity [40]: 94% | residual activity [41]: 86% | residual activity [42]: 89% | residual activity [43]: 67% | residual activity [44]: 100% | residual activity [45]: 100%
